# Data: ChEMBL document CHEMBL3228019, “Aminoglycoside antibiotics. 2. N,N-Dialkylkanamycins” (1979)
# Legend:
# Format in all cases: functional
# Providencia rettgeri [1] = experiment: Antibacterial activity against Proteus rettgeri 9637 assessed as growth inhibition measured after overnight incubation by two-fold broth dilution method
# Enterobacter cloacae [2] = experiment: Antibacterial activity against Enterobacter cloacae 20364 expressing aminoglycoside-3'-phosphotransferase-1 assessed as growth inhibition measured after overnight incubation by two-fold broth dilution method
# Staphylococcus aureus [3] = experiment: Antibacterial activity against Staphylococcus aureus 9537 assessed as growth inhibition measured after overnight incubation by two-fold broth dilution method
# Pseudomonas aeruginosa [4] = experiment: Antibacterial activity against Pseudomonas aeruginosa 9843a assessed as growth inhibition measured after overnight incubation by two-fold broth dilution method
# Escherichia coli [5] = experiment: Antibacterial activity against Escherichia coli 20732 expressing aminoglycoside-2''-nucleotidyltransferase assessed as growth inhibition measured after overnight incubation by two-fold broth dilution method
# Escherichia coli [6] = experiment: Antibacterial activity against Escherichia coli 9632 assessed as growth inhibition measured after overnight incubation by two-fold broth dilution method
# Klebsiella pneumoniae = experiment: Antibacterial activity against Klebsiella pneumoniae 9977 assessed as growth inhibition measured after overnight incubation by two-fold broth dilution method
# Providencia rettgeri [7] = experiment: Antibacterial activity against Proteus rettgeri 21207 expressing aminoglycoside-2'-acetyltransferase assessed as growth inhibition measured after overnight incubation by two-fold broth dilution method
# Pseudomonas aeruginosa [8] = experiment: Antibacterial activity against kanamycin A/B impermeable Pseudomonas aeruginosa 21509 assessed as growth inhibition measured after overnight incubation by two-fold broth dilution method
# Staphylococcus aureus [9] = experiment: Antibacterial activity against Staphylococcus aureus 20240 expressing aminoglycoside-3'-phosphotransferase-4 assessed as growth inhibition measured after overnight incubation by two-fold broth dilution method
# Escherichia coli [10] = experiment: Antibacterial activity against Escherichia coli 21218 expressing aminoglycoside-6'-acetyltransferase assessed as growth inhibition measured after overnight incubation by two-fold broth dilution method
# Pseudomonas aeruginosa [11] = experiment: Antibacterial activity against Pseudomonas aeruginosa 20897 expressing aminoglycoside-3'-phosphotransferase-1 and aminoglycoside-6'-acetyltransferase assessed as growth inhibition measured after overnight incubation by two-fold broth dilution method
# Escherichia coli [12] = experiment: Antibacterial activity against Escherichia coli 20665 expressing aminoglycoside-3'-phosphotransferase-1 assessed as growth inhibition measured after overnight incubation by two-fold broth dilution method
# Enterobacter cloacae [13] = experiment: Antibacterial activity against Enterobacter cloacae 9656 assessed as growth inhibition measured after overnight incubation by two-fold broth dilution method
# Pseudomonas aeruginosa [14] = experiment: Antibacterial activity against Pseudomonas aeruginosa 20610 expressing aminoglycoside-3'-phosphotransferase and aminoglycoside-3-acetyltransferase-1 assessed as growth inhibition measured after overnight incubation by two-fold broth dilution method
# Pseudomonas aeruginosa [15] = experiment: Antibacterial activity against Pseudomonas aeruginosa 20653 expressing aminoglycoside-3'-phosphotransferase-4 assessed as growth inhibition measured after overnight incubation by two-fold broth dilution method
Structure (SMILES),MIC (Providencia rettgeri [1]) [µg/mL],MIC (Enterobacter cloacae [2]) [µg/mL],MIC (Staphylococcus aureus [3]) [µg/mL],MIC (Pseudomonas aeruginosa [4]) [µg/mL],MIC (Escherichia coli [5]) [µg/mL],MIC (Escherichia coli [6]) [µg/mL],MIC (Klebsiella pneumoniae) [µg/mL],MIC (Providencia rettgeri [7]) [µg/mL],MIC (Pseudomonas aeruginosa [8]) [µg/mL],MIC (Staphylococcus aureus [9]) [µg/mL],MIC (Escherichia coli [10]) [µg/mL],MIC (Pseudomonas aeruginosa [11]) [µg/mL],MIC (Escherichia coli [12]) [µg/mL],MIC (Enterobacter cloacae [13]) [µg/mL],MIC (Pseudomonas aeruginosa [14]) [µg/mL],MIC (Pseudomonas aeruginosa [15]) [µg/mL]
N[C@@H]1C[C@H](N)[C@@H](O[C@H]2O[C@@H]3CNC(=O)O[C@H]3[C@H](O)[C@H]2O)[C@H](O)[C@H]1O[C@H]1O[C@H](CO)[C@@H](O)[C@@H]2NC(=O)O[C@@H]12,63,125,32,32,125,32,63,125,32,32,63,32,63,63,32,32
NC[C@H]1O[C@H](O[C@H]2[C@H](O)[C@@H](O[C@H]3O[C@H](CO)[C@@H](O)[C@H](N)[C@H]3O)[C@H](N)C[C@@H]2N)[C@H](N)[C@@H](O)[C@@H]1O [BEKANAMYCIN],0.5,> 125,0.5,63,32,2,0.25,32,> 125,> 125,32,> 125,> 125,2,32,> 125
NC[C@@H]1O[C@@H](O[C@H]2[C@H](O)[C@@H](O[C@H]3O[C@H](CO)[C@@H](O)[C@H](N)[C@H]3O)[C@H](N)C[C@@H]2N)[C@@H](O)[C@H](O)[C@H]1O [KANAMYCIN A],0.5,> 125,1,63,125,4,0.25,8,> 125,> 125,> 125,> 125,> 125,4,32,> 125

# Further lines, results first:
MIC (Providencia rettgeri [1]) [µg/mL],MIC (Enterobacter cloacae [2]) [µg/mL],MIC (Staphylococcus aureus [3]) [µg/mL],MIC (Pseudomonas aeruginosa [4]) [µg/mL],MIC (Escherichia coli [5]) [µg/mL],MIC (Escherichia coli [6]) [µg/mL],MIC (Klebsiella pneumoniae) [µg/mL],MIC (Providencia rettgeri [7]) [µg/mL],MIC (Pseudomonas aeruginosa [8]) [µg/mL],MIC (Staphylococcus aureus [9]) [µg/mL],MIC (Escherichia coli [10]) [µg/mL],MIC (Pseudomonas aeruginosa [11]) [µg/mL],MIC (Escherichia coli [12]) [µg/mL],MIC (Enterobacter cloacae [13]) [µg/mL],MIC (Pseudomonas aeruginosa [14]) [µg/mL],MIC (Pseudomonas aeruginosa [15]) [µg/mL],Structure (SMILES)
16,63,4,8,63,16,4,63,16,8,63,8,63,8,8,8,CNC[C@H]1O[C@H](O[C@H]2[C@H](O)[C@@H](O[C@H]3O[C@H](CO)[C@@H](O)[C@H](NC)[C@H]3O)[C@H](N)C[C@@H]2N)[C@H](N)[C@@H](O)[C@@H]1O
> 125,> 125,> 125,> 125,> 125,> 125,> 125,> 125,> 125,> 125,125,> 125,> 125,> 125,> 125,> 125,CNC[C@H]1O[C@H](O[C@H]2[C@H](O)[C@@H](O[C@H]3O[C@H](CO)[C@@H](O)[C@H](NC)[C@H]3O)[C@H](N)C[C@@H]2N)[C@H](O)[C@@H](O)[C@@H]1O
32,> 125,63,> 125,> 125,> 125,> 125,4,> 125,> 125,> 125,> 125,> 125,125,> 125,> 125,CCNC[C@H]1O[C@H](O[C@H]2[C@H](O)[C@@H](O[C@H]3O[C@H](CO)[C@@H](O)[C@H](NCC)[C@H]3O)[C@H](N)C[C@@H]2N)[C@H](O)[C@@H](O)[C@@H]1O
